Experimental data reported in patent publication US11230540B2, “Substituted triazole derivatives and uses thereof” (Bayer Pharma Aktiengesellschaft, priority 2017, dated 2022).

What was measured:
[1] = molecular target: T1, human V1a receptor (Homo sapiens, UniProt P37288); assay: Cellular in vitro assay for vasopressin receptor activity, V1a receptor cell line (aequorin luminescence); type: cell-based; conditions: for IC50: CHO cell line transfected with human V1a receptor, [Arg8]-vasopressin at EC50 concentration, read-out: IC50 hV1a; for ratio IC50 hV2/hV1a: selectivity ratio of the IC50 values hV2/hV1a
T1 construct: expressed in transfected cells; host or cells: CHO K1 (Chinese hamster ovary), also stably transfected with a modified aequorin
How it was run: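 Recombinant CHO K1 cells stably expressing human V1a receptor and aequorin, loaded with coelenterazine, were exposed to test compounds for 10 minutes before [Arg^8]-vasopressin at EC50 concentration. Calcium-triggered luminescence was measured immediately, giving IC50 values.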

[2] = molecular target: T2, human V2 receptor (Homo sapiens, UniProt P30518); assay: Cellular in vitro assay for vasopressin receptor activity, V2 receptor cell line (CRE-luciferase); type: cell-based; conditions: CHO cell line transfected with human V2 receptor; [Arg8]-vasopressin at EC50 concentration; read-out: IC50 hV2
T2 construct: expressed in transfected cells; host or cells: CHO K1 (Chinese hamster ovary) expressing firefly luciferase under a CRE-responsive promoter
How it was run: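 CHO K1 cells stably expressing human V2 receptor with CRE-driven firefly luciferase, plated the day before. Test compounds at various concentrations added together with [Arg^8]-vasopressin at EC50 concentration, 3 h at 37° C, 5% CO2. Luminescence read after Triton lysis and luciferin addition; IC50 values reported.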

T2 sequence (P30518 whole entry): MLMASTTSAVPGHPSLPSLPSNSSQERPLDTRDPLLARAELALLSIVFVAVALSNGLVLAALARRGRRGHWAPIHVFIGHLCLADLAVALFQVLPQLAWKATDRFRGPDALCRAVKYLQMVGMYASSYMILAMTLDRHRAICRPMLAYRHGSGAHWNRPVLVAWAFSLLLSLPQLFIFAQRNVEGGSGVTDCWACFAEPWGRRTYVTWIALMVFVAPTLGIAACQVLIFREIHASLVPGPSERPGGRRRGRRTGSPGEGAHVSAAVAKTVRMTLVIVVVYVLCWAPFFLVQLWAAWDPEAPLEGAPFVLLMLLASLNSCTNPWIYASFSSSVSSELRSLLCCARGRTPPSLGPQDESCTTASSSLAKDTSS
T1 sequence (P37288 whole entry): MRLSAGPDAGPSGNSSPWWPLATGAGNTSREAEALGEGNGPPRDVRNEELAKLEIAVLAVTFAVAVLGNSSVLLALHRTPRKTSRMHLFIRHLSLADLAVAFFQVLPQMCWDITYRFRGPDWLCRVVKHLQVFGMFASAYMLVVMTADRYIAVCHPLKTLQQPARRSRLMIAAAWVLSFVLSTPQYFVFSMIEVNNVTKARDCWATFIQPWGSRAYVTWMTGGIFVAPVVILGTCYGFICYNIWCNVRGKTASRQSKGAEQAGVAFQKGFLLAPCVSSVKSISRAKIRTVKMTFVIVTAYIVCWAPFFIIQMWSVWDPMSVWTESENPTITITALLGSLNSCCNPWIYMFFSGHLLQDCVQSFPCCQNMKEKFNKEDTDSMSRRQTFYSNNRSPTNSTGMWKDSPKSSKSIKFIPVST

Row | SMILES | IC50 [1] [nM] | ratio IC50 hV2/hV1a [1] | IC50 [2] [nM]
1 | O=C(NCC(F)(F)F)c1nc(Cn2nc(-c3ccc(Cl)cc3)n(C[C@H](O)C(F)(F)F)c2=O)nn1-c1cnccc1Cl [Example 19, 3-({3-(4-Chlorophenyl)-5-oxo-4-[(2S)-3,3,3-trifluoro-2-hydroxypropyl]-4,5-dihydro-1H-1,2,4-triazol-1-yl}methyl)-1-(4-chloropyridin-3-yl)-N-(2,2,2-trifluoroethyl)-1H-1,2,4-triazole-5-carboxamide] | 0.47 | 45.7 | 21.5
2 | O=C(c1nc(Cn2nc(-c3ccc(Cl)cc3)n(C[C@H](O)C(F)(F)F)c2=O)nn1-c1ccccc1Cl)N1CC(O)(C(F)(F)F)C1 [Example 12, 5-(4-Chlorophenyl)-2-{[1-(2-chlorophenyl)-5-{[3-hydroxy-3-(trifluoromethyl)azetidin-1-yl]carbonyl}-1H-1,2,4-triazol-3-yl]methyl}-4-[(2S)-3,3,3-trifluoro-2-hydroxypropyl]-2,4-dihydro-3H-1,2,4-triazol-3-one] | 1.19 | 18.7 | 22.2
3 | CC(C)(O)CNC(=O)c1nc(Cn2nc(-c3ccc(Cl)cc3)n(C[C@H](O)C(F)(F)F)c2=O)nn1-c1cccnc1Cl [Example 15, 3-({3-(4-Chlorophenyl)-5-oxo-4-[(2S)-3,3,3-trifluoro-2-hydroxypropyl]-4,5-dihydro-1H-1,2,4-triazol-1-yl}methyl)-1-(2-chloropyridin-3-yl)-N-(2-hydroxy-2-methylpropyl)-1H-1,2,4-triazole-5-carboxamide] | 13 | – | 183
4 | O=C(c1nc(Cn2nc(-c3ccc(Cl)cc3)n(C[C@H](O)C(F)(F)F)c2=O)nn1-c1ccccc1Cl)N1CCOCC1 [Example 30, 5-(4-Chlorophenyl)-2-{[1-(2-chlorophenyl)-5-(morpholin-4-ylcarbonyl)-1H-1,2,4-triazol-3-yl]methyl}-4-[(2S)-3,3,3-trifluoro-2-hydroxypropyl]-2,4-dihydro-3H-1,2,4-triazol-3-one] | 1.01 | 29.0 | 29.3

Second part, the compound after the results:

Row | IC50 [1] [nM] | ratio IC50 hV2/hV1a [1] | IC50 [2] [nM] | SMILES
5 | 2.75 | 160.0 | 440 | CC1(O)CCN(C(=O)c2nc(Cn3nc(-c4ccc(Cl)cc4)n(C[C@H](O)C(F)(F)F)c3=O)nn2-c2ncccc2C(F)(F)F)C1 (stereo partly drawn) [Example 57, 5-(4-Chlorophenyl)-2-({5-[(35)-3-hydroxy-3-methylpyrrolidine-1-carbonyl]-1-[3-(trifluoromethyl)pyridin-2-yl]-1H-1,2,4-triazol-3-yl}methyl)-4-[(2S)-3,3,3-trifluoro-2-hydroxypropyl]-2,4-dihydro-3H-1,2,4-triazol-3-one]
6 | 1.31 | 31.3 | 41 | CC(C)(C)NC(=O)c1nc(Cn2nc(-c3ccc(Cl)cc3)n(C[C@H](O)C(F)(F)F)c2=O)nn1-c1ncccc1C(F)(F)F [Example 48, N-Tert-butyl-3-({3-(4-chlorophenyl)-5-oxo-4-[(2S)-3,3,3-trifluoro-2-hydroxypropyl]-4,5-dihydro-1H-1,2,4-triazol-1-yl}methyl)-1-[3-(trifluoromethyl)pyridin-2-yl]-1H-1,2,4-triazole-5-carboxamide]
7 | 0.7 | 100.0 | 70 | CC(C)(C)CNC(=O)c1nc(Cn2nc(-c3ccc(Cl)cc3)n(C[C@H](O)C(F)(F)F)c2=O)nn1-c1ncccc1C(F)(F)F [Example 50, 3-({3-(4-Chlorophenyl)-5-oxo-4-[(2S)-3,3,3-trifluoro-2-hydroxypropyl]-4,5-dihydro-1H-1,2,4-triazol-1-yl}methyl)-N-(2,2-dimethylpropyl)-1-[3-(trifluoromethyl)pyridin-2-yl]-1H-1,2,4-triazole-5-carboxamide]
